Columns and labels:
[1] = test system: CHO-K1 cells transgenic for constitutive SEAP expression; assay: Control mice receiving CHO-K1 cells transgenic for constitutive SEAP expression, phloretin skin lotion; format: in vivo, female OF1 mice; settings: constitutive SEAP implant; skin lotion with 42 mg phloretin (0 mg: 6.2±0.43 U/L)
Procedure: CHO-PEACE8 is microencapsulated in coherent alginate-PLL-alginate capsules and implanted subcutaneously into mice. The back of treated mice is partially shaved and vaseline-based skin lotions (200 μL) containing different amounts of phloretin (0-42 mg) are put on every day. […] Control mice receiving CHO-K1 cells transgenic for constitutive SEAP expression are insensitive to any treatment with phloretin-containing skin lotion (0 mg phloretin: 6.2±0.43 U/L; 42 mg phloretin: 6.02±0.58 U/L).
CHO-PEACE8 and CHO-SEAP18 (Fluri D. A., Kemmer C., Daoud-El Baba M., Fussenegger M., 2008, J Control Release 131(3):211-219) are encapsulated in alginate-poly-(L-lysine)-alginate beads (400 μm; 200 cells/capsule) using an Inotech Encapsulator Research IE-50R (Recipharm, Basel, Switzerland) according to the manufacturer's instructions and the following parameters: 0.2 mm nozzle, 20 mL syringe at a flow rate of 405 units, nozzle vibration frequency of 1024 Hz and 900 V for bead dispersion. […] Thereafter, the mice are sacrificed, blood samples collected and SEAP levels are quantified in the serum which is isolated using microtainer SST tube according to the manufacturer's instructions (Beckton Dickinson, Plymouth, UK). […]

TtgA1 (TtgR-VP16) = TtgA1 (TtgR-VP16) (Pseudomonas putida, UniProt Q9AIU0); assay: Autoregulated PEACE-controlled SEAP expression (pMG13) in CHO-K1; format: cell-based; set-up: expressed in transfected cells; host or cells: CHO-K1 (transient pMG11 or pMG13); also HEK-293, BHK-21, COS-7, HaCaT, HT-1080, NIH/3T3, primary human fibroblasts and keratinocytes; settings: 50 μM phloretin, 48 h
[2] = target: T1, tetracycline-responsive control system (PSV40-tTA-pA; PhCMV*-1-SAMY-pA) (Escherichia coli, UniProt P04483); assay: Compatibility test: tetracycline-responsive (TETOFF) SAMY production in CHO-PEACE8 (pSAM200, pBP99); format: cell-based; settings: CHO-PEACE8 transiently transfected with tetracycline-responsive control system; Phl 50 μM, Tet 2 μg/mL; 48 h; 100 = no inducer
T1 construct: expressed in transfected cells; host or cells: CHO-PEACE8 transiently transfected with pSAM200 and pBP99
From the text: To evaluate the functional compatibility of PEACE with the established tetracycline— [TETOFF; Gossen M., Bujard H., 1992, Proc Natl Acad Sci USA 89(12):5547-5551] and macrolide— [EOFF; Weber W., et al., 2002, Nat Biotechnol 20(9):901-907] responsive expression circuits CHO-PEACE8 is transiently transfected, transgenic for phloretin-responsive SEAP expression, with either the TETOFF-(pSAM200, PSV40-tTA-pA; pBP99, PhCMV*-1-SAMY-pA) or the EOFF-(PWW35, PSV40-ET1-pA; pBP100, PETR3-SAMY-pA) system set to control the Bacillus stearothermophilus-derived secreted α-amylase (SAMY) in response to tetracycline and erythromycin, respectively. SEAP and SAMY expression are scored 48 h after cultivation of the transfected populations in the presence (50 μM; 2 μg/mL) or absence of the inducer molecules (phloretin, tetracycline, erythromycin).

T1 sequence (P04483 whole entry, added parts left off): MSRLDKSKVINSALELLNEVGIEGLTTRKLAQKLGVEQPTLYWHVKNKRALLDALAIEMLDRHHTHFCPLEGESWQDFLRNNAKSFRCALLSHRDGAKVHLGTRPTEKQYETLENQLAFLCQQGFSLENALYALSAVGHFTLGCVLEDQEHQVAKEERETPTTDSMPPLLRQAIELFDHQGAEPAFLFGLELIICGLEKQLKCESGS
TtgA1 (TtgR-VP16), sequence (Q9AIU0 whole entry, added parts left off): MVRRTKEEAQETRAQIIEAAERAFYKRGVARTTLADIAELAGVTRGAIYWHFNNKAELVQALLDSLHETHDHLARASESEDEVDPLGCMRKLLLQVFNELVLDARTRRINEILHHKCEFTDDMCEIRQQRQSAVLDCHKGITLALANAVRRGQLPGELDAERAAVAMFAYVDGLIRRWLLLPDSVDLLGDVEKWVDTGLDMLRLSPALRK

In the case of `O=C(CCc1ccc(O)cc1)c1c(O)cc(O)cc1O` [phloretin, 3-[4-hydroxyphenyl]-1-[2,4,6-trihydroxyphenyl]-1-propanone], the “SEAP level in control mice” value [1] is reported as 6.02±0.58 U/L, the “SEAP expression (autoregulated circuit)” value (TtgA1 (TtgR-VP16)) is reported as “completely repressed” and the “Relative SAMY Production (%)” value [2] is reported as 98.1 ± 2.8%.

— US8653046B2, “Controlling transgene expression across the skin” (ETH Zurich, priority 2009, dated 2014)
